Data on two compounds can be found in patent publication US7736621B2, “Methods for gauging the effect of a depression treatment by determining the levels of beta-arrestin 1 and G-protein coupled receptor kinase 2” (Hypatia Ltd., priority 2004, dated 2010).

One assay concerns Gs and Gi proteins. The settings on record: cited from earlier work.
A further assay has as its system beta-arrestin1. The assay can be described thus: Beta-arrestin 1 levels in rat brain areas after chronic antidepressant treatment (immunoblot). The format is in vivo. The settings on record: three weeks of treatment. As for the experimental part:
On the 22nd day, rats were decapitated, blood collected and brain regions immediately dissected. Tissue homogenization was carried out in a glass-teflon homogenizer with ice-cold buffer containing 20 mM Tris.Cl pH 7.4, 2 mM EDTA, 1 mM DTT and antiprotease cocktail (Sigma). After initial centrifugation at 800 g for 5 min, the supernatant was collected and further centrifuged at 48,000 g for 30 min using a Beckman Ti80 rotor. The resulting supernatant and pellet were separated: the supernatant fraction was collected and centrifuged at 120,000 g for 45 min and the supernatant obtained was used for all measurements; the pellet was resuspended in the homogenization buffer and the pellet fraction obtained was used for all measurements.
On the day of assay, cytosolic and/or membrane fraction were thawed. 10 μg total protein aliquots were taken for protein separation by SDS-(10%) polyacrylamide gel electrophoresis. The resulting proteins were transferred to nitrocellulose paper by use of electroblotting apparatus. Blots were blocked with 5% BSA for 1 hr in TBS containing 0.1% Tween-20 (TTBS) and incubated overnight with a monoclonal antibody to beta-arrestin1 (Transduction Labs, diluted 1:250). The immune bands were detected by subsequent incubation with anti-mouse IgG labeled with horseradishperoxidase using the Enhanced Chemiluminescence Western Blot Detection System (Amersham) followed by exposure to Kodak X-Omat film. […] Peak heights of immunoreactive bands presented as arbitrary absorbance units, were determined with a computer-assisted imaging system for semi-quantitative measurements. 10 μg rat cortical membranes run in each blot as a standard reference.
Beta-arrestin1 levels were measured in three rat brain areas: cortex, hippocampus and striatum.
For orientation: In western blotting, separated proteins are transferred to a membrane and probed.

For the compound `O=C(CCCN1CCC(O)(c2ccc(Cl)cc2)CC1)c1ccc(F)cc1` [haloperidol], the “Dopamine-induced Gs hyperfunction of untreated patients with schizophrenia” value with Gs and Gi proteins (leukocytes of patients with schizophrenia) is reported as “corrected”. Moreover, the “Gs level and function” value in the assay with Gs and Gi proteins (patients with schizophrenia, reduction correlated with intensity of Parkinsonian side effects) is “significant decrease in Gs level and function to below normal levels”.
On to `CN(C)CCCN1c2ccccc2CCc2ccccc21` [imipramine], for which the “Cytosolic beta-arrestin-1 in rat cortex” value with beta-arrestin1 (rat cortex, cytosolic fraction, 10 mg/kg twice daily intragastrically, compared with control group) is 165.6%. For the same compound, in the assay on beta-arrestin1 (rat cortex, membrane fraction, 10 mg/kg twice daily intragastrically, compared with control group), the “Membrane beta-arrestin 1 in rat cortex” value amounted to 156.8%. Moreover, in the assay on beta-arrestin1 (rat hippocampus, cytosolic fraction, 10 mg/kg twice daily intragastrically, compared with control group), the “Cytosolic beta-arrestin-1 in rat hippocampus” value is 179.2%. The “Beta-arrestin 1 levels in striatum” value with beta-arrestin1 (rat striatum) is listed as “no alterations”.
